Measurements as given in ChEMBL document CHEMBL5543083, “3,5-Disubstituted-thiazolidine-2,4-dione hybrids as antidiabetic agents: Design, synthesis, in-vitro and In vivo evaluation” (Eur J Med Chem, 2024).
In brackets after ≈: the same amount, converted by molar mass. Activity calls are given as the source filed them. The calls are words filed in the database; no cut-off is given here.

Legend:
[1] = target: T1, Alpha amylase (Homo sapiens, UniProt P0DUB6); test: Inhibition of Alpha-amylase (unknown origin); assay type: protein assay
T1 sequence (P0DUB6 whole entry): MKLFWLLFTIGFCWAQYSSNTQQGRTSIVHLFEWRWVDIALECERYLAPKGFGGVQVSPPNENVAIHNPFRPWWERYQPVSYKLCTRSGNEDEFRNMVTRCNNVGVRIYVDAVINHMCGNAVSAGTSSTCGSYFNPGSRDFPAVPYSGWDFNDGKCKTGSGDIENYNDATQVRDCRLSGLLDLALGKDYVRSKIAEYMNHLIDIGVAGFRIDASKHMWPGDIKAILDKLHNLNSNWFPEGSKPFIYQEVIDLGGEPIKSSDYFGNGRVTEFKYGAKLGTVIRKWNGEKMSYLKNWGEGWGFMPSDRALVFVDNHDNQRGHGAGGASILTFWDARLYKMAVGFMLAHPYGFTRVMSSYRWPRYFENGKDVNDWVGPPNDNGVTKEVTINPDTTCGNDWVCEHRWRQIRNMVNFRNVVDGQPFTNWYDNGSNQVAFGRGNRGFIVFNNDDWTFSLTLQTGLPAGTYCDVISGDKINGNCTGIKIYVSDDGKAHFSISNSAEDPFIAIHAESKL

[2] = Antioxidant activity assessed as DPPH radical scavenging activity; assay type: functional
[3] = target: Alpha-glucosidase (Saccharomyces cerevisiae S288c, UniProt P53341+P38158+P07265); test: Inhibition of yeast Alpha glucosidase 4-nitrophenyl-alpha-D-glucopyranoside incubated for 15 to 20 mins by Bio-rad microplate reader analysis; assay type: protein assay
[4] = target: T2, Alpha-amylase (Sus scrofa domesticus, UniProt Q7M328); test: Inhibition of porcine pancreatic Alpha-amylase using starch as substrate preincubated for 10 mins followed by substrate addition and measured after 15 mins by Bio-rad microplate reader analysis; details: read-out: IC50
T2 sequence (Q7M328 whole entry): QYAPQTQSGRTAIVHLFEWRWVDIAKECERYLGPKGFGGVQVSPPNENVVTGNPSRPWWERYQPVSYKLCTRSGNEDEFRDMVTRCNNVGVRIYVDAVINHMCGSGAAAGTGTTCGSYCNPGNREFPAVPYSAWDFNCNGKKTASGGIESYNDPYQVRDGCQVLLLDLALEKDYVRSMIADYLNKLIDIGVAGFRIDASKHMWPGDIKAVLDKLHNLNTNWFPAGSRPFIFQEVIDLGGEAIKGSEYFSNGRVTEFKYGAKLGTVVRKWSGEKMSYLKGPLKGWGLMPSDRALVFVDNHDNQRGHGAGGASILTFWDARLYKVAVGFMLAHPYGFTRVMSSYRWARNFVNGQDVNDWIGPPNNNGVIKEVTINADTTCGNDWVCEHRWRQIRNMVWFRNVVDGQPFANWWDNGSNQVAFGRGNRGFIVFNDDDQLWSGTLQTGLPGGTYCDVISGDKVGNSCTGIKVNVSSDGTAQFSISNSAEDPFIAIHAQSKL

[5] = Antioxidant activity assessed as DPPH radical scavenging activity measured for 30 mins by spectrophotometric analysis; assay type: functional; details: read-out: IC50
[6] = test system: PANC-1; test: Cytotoxicity against human PANC-1 cells assessed as inhibition of cell growth; assay type: functional, cell-based; details: Homo sapiens, PANC-1; read-out: IC50
[7] = test system: PANC-1; test: Induction of ROS production in high glucose-induced human PANC-1 cells assessed as maximum fluorescence intensity at 10 uM incubated for 30 mins DCFDA-staining based flow cytometry analysis (reference value: 15.09); assay type: functional; details: 0.5 h
[8] = test system: Rattus norvegicus; test: Antidiabetic activity against streptozotocin-induced Wistar rat assessed as decrease in blood glucose level at 10 mg/kg, po measured at 60 mins by oral glucose test; assay type: functional, organism-based
[9] = Toxicity in Wistar rat assessed as decrease in body weight at 10 mg/kg, po measured on day 14; assay type: organism-based; details: in vivo, 336 h, time 14 day
[10] = Toxicity in Wistar rat assessed as decrease in body weight at 10 mg/kg, po measured on day 35; assay type: organism-based; details: in vivo, 840 h, time 35 day
[11] = test system: Rattus norvegicus; test: Antidiabetic activity against streptozotocin-induced Wistar rat assessed as effect on blood glucose level at 10 mg/kg, po measured on day 1; assay type: functional, organism-based; details: time 1.0 day
[12] = test system: Rattus norvegicus; test: Antidiabetic activity against streptozotocin-induced Wistar rat assessed as effect on blood glucose level at 10 mg/kg, po measured on day 4; assay type: functional, organism-based; details: time 4.0 day
[13] = test system: Rattus norvegicus; test: Antidiabetic activity against streptozotocin-induced Wistar rat assessed as increase in PPAR-gamma level at 10 mg/kg, po measured upto 35 days by ELISA analysis; assay type: functional, organism-based; details: time <= 35.0 day
[14] = test system: Rattus norvegicus; test: Antidiabetic activity against Wistar rat assessed as decrease in total cholesterol level at 10 mg/kg, po measured upto 35 days; assay type: functional, organism-based; details: time <= 35.0 day
[15] = test system: Rattus norvegicus; test: Antidiabetic activity against streptozotocin-induced Wistar rat assessed as decrease in HDL level at 10 mg/kg, po measured upto 35 days; assay type: functional, organism-based; details: time <= 35.0 day
[16] = test system: Rattus norvegicus; test: Antidiabetic activity against streptozotocin-induced Wistar rat assessed as decrease in triglyceride level at 10 mg/kg, po measured upto 35 days; assay type: functional, organism-based; details: time <= 35.0 day
[17] = test system: Rattus norvegicus; test: Antidiabetic activity against streptozotocin-induced Wistar rat assessed as decrease in MDA level at 10 mg/kg, po measured upto 35 days; assay type: functional, organism-based; details: time <= 35.0 day
[18] = test system: Rattus norvegicus; test: Antidiabetic activity against streptozotocin-induced Wistar rat assessed as decrease in SOD level at 10 mg/kg, po measured upto 35 days; assay type: functional, organism-based; details: time <= 35.0 day
[19] = test system: Rattus norvegicus; test: Antidiabetic activity against streptozotocin-induced Wistar rat assessed as effect on glutathione level at 10 mg/kg, po measured upto 35 days; assay type: functional, organism-based; details: time <= 35.0 day
[20] = test system: Rattus norvegicus; test: Antidiabetic activity against Wistar rat assessed as effect on glutathione level at 10 mg/kg, po measured upto 35 days; assay type: functional, organism-based; details: time <= 35.0 day
[21] = test system: Rattus norvegicus; test: Antidiabetic activity against streptozotocin-induced Wistar rat assessed as change in blood urea nitrogen level at 10 mg/kg, po measured upto 35 days; assay type: functional, organism-based; details: time <= 35.0 day
[22] = test system: Rattus norvegicus; test: Antidiabetic activity against streptozotocin-induced Wistar rat assessed as change in BUN level at 10 mg/kg, po measured upto 35 days; assay type: functional, organism-based; details: time <= 35.0 day
[23] = test system: Rattus norvegicus; test: Antidiabetic activity against Wistar rat assessed as increase in serum creatine level at 10 mg/kg, po measured upto 35 days; assay type: functional, organism-based; details: time <= 35.0 day
[24] = test system: Rattus norvegicus; test: Antidiabetic activity against streptozotocin-induced Wistar rat assessed as increase in serum ALP level at 10 mg/kg, po measured upto 35 days; assay type: functional, organism-based; details: time <= 35.0 day
[25] = test system: Rattus norvegicus; test: Antidiabetic activity against streptozotocin-induced Wistar rat assessed as change in serum SGOT level at 10 mg/kg, po measured upto 35 days; assay type: functional, organism-based; details: time <= 35.0 day
[26] = test system: Rattus norvegicus; test: Antidiabetic activity against streptozotocin-induced Wistar rat assessed as change in serum SGPT level at 10 mg/kg, po measured upto 35 days; assay type: functional, organism-based; details: time <= 35.0 day
[27] = test system: Rattus norvegicus; test: Antidiabetic activity against streptozotocin-induced Wistar rat assessed as increase in TNF-alpha level in Pancreas at 10 mg/kg, po measured upto 35 days; assay type: functional, organism-based; details: time <= 35.0 day
[28] = test system: Rattus norvegicus; test: Antidiabetic activity against streptozotocin-induced Wistar rat assessed as increase in IL1-beta level in Pancreas at 10 mg/kg, po measured upto 35 days; assay type: functional, organism-based; details: time <= 35.0 day
[29] = Toxicity in streptozotocin-induced Wistar rat assessed as changes in organ to body weight ratio at 10 mg/kg, po measured up to 35 days; assay type: organism-based; details: in vivo, 840 h, time < 35 day
[30] = Toxicity in streptozotocin-induced Wistar rat assessed as decrease in basophil count at 10 mg/kg, po measured up to 35 days; assay type: organism-based; details: in vivo, 840 h, time < 35 day
[31] = Toxicity in streptozotocin-induced Wistar rat assessed as decrease in eosinophil count at 10 mg/kg, po measured up to 35 days; assay type: organism-based; details: in vivo, 840 h, time < 35 day
[32] = Toxicity in streptozotocin-induced Wistar rat assessed as change in blood lymphocyte count at 10 mg/kg, po measured up to 35 days; assay type: organism-based; details: in vivo, 840 h, time < 35 day
[33] = Toxicity in streptozotocin-induced Wistar rat assessed as morphological changes in pancrease at 10 mg/kg, po measured up to 35 days; assay type: organism-based; details: in vivo, 840 h, time < 35 day
[34] = Toxicity in streptozotocin-induced Wistar rat assessed as morphological changes in kidney at 10 mg/kg, po measured up to 35 days; assay type: organism-based; details: in vivo, 840 h, time < 35 day
[35] = Toxicity in streptozotocin-induced Wistar rat assessed as decrease in tubular necrosis in kidney at 10 mg/kg, po measured up to 35 days; assay type: organism-based; details: in vivo, 840 h, time < 35 day
[36] = Toxicity in streptozotocin-induced Wistar rat assessed as decrease in glomeruli shrinkage in kidney at 10 mg/kg, po measured up to 35 days; assay type: organism-based; details: in vivo, 840 h, time < 35 day
[37] = Toxicity in streptozotocin-induced Wistar rat assessed as decrease in dilation of renal tubules in kidney at 10 mg/kg, po measured up to 35 days; assay type: organism-based; details: in vivo, 840 h, time < 35 day
[38] = test system: Rattus norvegicus; test: Antidiabetic activity against streptozotocin-induced Wistar rat assessed as decrease in blood glucose level at 10 mg/kg, po measured at 30 mins by oral glucose test; assay type: functional, organism-based
[39] = test system: Rattus norvegicus; test: Antidiabetic activity against streptozotocin-induced Wistar rat assessed as increase in serum amylase level at 10 mg/kg, po measured upto 35 days by ELISA analysis; assay type: functional, organism-based; details: time <= 35.0 day
[40] = test system: Rattus norvegicus; test: Antidiabetic activity against streptozotocin-induced Wistar rat assessed as effect on serum catalase level at 10 mg/kg, po measured upto 35 days; assay type: functional, organism-based; details: time <= 35.0 day
[41] = test system: Rattus norvegicus; test: Antidiabetic activity against streptozotocin-induced Wistar rat assessed as change in uric acid level at 10 mg/kg, po measured upto 35 days; assay type: functional, organism-based; details: time <= 35.0 day
[42] = test system: Rattus norvegicus; test: Antidiabetic activity against streptozotocin-induced Wistar rat assessed as increase in serum creatine level at 10 mg/kg, po measured upto 35 days; assay type: functional, organism-based; details: time <= 35.0 day
[43] = Toxicity in streptozotocin-induced Wistar rat assessed as morphological changes in liver at 10 mg/kg, po measured up to 35 days; assay type: organism-based; details: in vivo, 840 h, time < 35 day

Compound | IC50 [3] | IC50 [4] | IC50 [5] | IC50 [6] | Flu intensity [7] | Activity [8] | Activity [9] | Activity [10] | Activity [11] | Activity [12] | Activity [13] | Activity [14] | Activity [15] | Activity [16] | Activity [24] | Activity [25] | Activity [26] | Activity [27] | Activity [28] | Activity [33] | also measured
O=C(O)CN1C(=O)S/C(=C\c2ccc3c(c2)OCO3)C1=O |  |  |  |  |  |  |  |  |  |  |  |  |  |  |  |  |  |  |  |  | IC50 [1]: 10.26 µg/mL (≈ 33.4 µM); IC50 [2]: 10.78 µg/mL (≈ 35.1 µM)
O=C1S/C(=C\c2ccc(Br)cc2)C(=O)N1Cc1cccc([N+](=O)[O-])c1 | 20.02 µM | 23.9 µM | 23.3 µM | 62.2 µM | 1514 | Active | Non-Toxic | Toxic | Active | Active | Active | Active | Active | Active | Active | Active | Active | Active | Active | Non-Toxic | Activity [17]: Active; Activity [18]: Active; Activity [19]: inactive; Activity [20]: Active; Activity [21]: Active; Activity [22]: Active; Activity [23]: Active; Activity [29]: Non-Toxic; Activity [30]: Non-Toxic; Activity [31]: Non-Toxic; Activity [32]: Non-Toxic; Activity [34]: Non-Toxic; Activity [35]: Non-Toxic; Activity [36]: Non-Toxic; Activity [37]: Non-Toxic
O=C1S/C(=C\c2ccc(Cl)cc2Cl)C(=O)N1Cc1cccc([N+](=O)[O-])c1 | 20.94 µM | 24.1 µM | 23.2 µM | 152 µM | 1474 | Active | Non-Toxic |  | Active | Active |  |  |  |  | Active | inactive | inactive | Active | Active | Non-Toxic | Activity [38]: Active; Activity [39]: Active; Activity [40]: Active; Activity [41]: Active; Activity [42]: Active; Activity [43]: Non-Toxic
CCOc1cc(/C=C2\SC(=O)N(Cc3cccc([N+](=O)[O-])c3)C2=O)ccc1O | 10.33 µM | 10.2 µM | 14.9 µM | 207 µM | 1324 | Active | Non-Toxic | Toxic | Active | Active | Active | Active | Active | Active | Active | Active | Active | Active | Active | Non-Toxic | Activity [38]: Active; Activity [39]: Active; Activity [17]: Active; Activity [18]: Active; Activity [19]: inactive; Activity [20]: Active; Activity [21]: Active; Activity [23]: Active; Activity [29]: Non-Toxic; Activity [30]: Non-Toxic; Activity [31]: Non-Toxic; Activity [32]: Non-Toxic; Activity [34]: Non-Toxic; Activity [35]: Non-Toxic; Activity [37]: Non-Toxic; Activity [43]: Non-Toxic
